# According to the RepoRT retention time repository (doi:10.1021/acs.analchem.2c02893):
# Experiment: RP, Thermo Scientific Acclaim RSLC 120 C18, 100 × 2.1 mm, 2.2 µm, 30 °C, 0.2 mL/min, estimated dead time 1.1 min; A: 90% water + 10% methanol + 0.01% formic acid + 5 mM ammonium formate, pH 3.61; B: methanol + 0.01% formic acid + 5 mM ammonium formate, pH 3.61; gradient (min/%B) 0/1 1/1 2/39 13/99.9 15/99.9 15.1/1 20.1/1
# Details: stereoisomer not certain
row,LC retention time [min],SMILES
1,6.94,CN1CCN(C(c2ccccc2)c2ccccc2)CC1 [Cyclizine]
2,7.59,CCCCCOC(=O)Nc1nc(=O)n(C2OC(C)C(O)C2O)cc1F (stereo not given) [Capecitabin]
3,8.87,COCCCOc1cc(CC(CC(N)C(O)CC(C(=O)NCC(C)(C)C(N)=O)C(C)C)C(C)C)ccc1OC (stereo not given) [Aliskiren]
4,7.18,COc1ccc(C2Sc3ccccc3N(CCN(C)C)C(=O)C2OC(C)=O)cc1 (stereo not given) [Diltiazem]
5,4.56,Nc1ccc(S(=O)(=O)Nc2ccc(Cl)nn2)cc1 [Sulfachloropyridazine]
6,9.19,O=C1NCN(c2ccccc2)C12CCN(CCCC(c1ccc(F)cc1)c1ccc(F)cc1)CC2 [Fluspirilen]
7,8.91,CC(=O)C1(O)CCC2C3CC(C)C4=CC(=O)C=CC4(C)C3(F)C(O)CC21C (stereo not given) [Fluorometholone]
8,11.2,C#CCOc1cc(-n2nc(C(C)(C)C)oc2=O)c(Cl)cc1Cl [Oxadiargyl]
9,8.2,CCN(CC)C(=O)c1cccc(C)c1 [DEET (Diethyltoluamide)]
10,8.17,CNc1nc(NC(C)C)nc(SC)n1 [Desmetryn]
11,8.09,CC12CCC3=C4CCC(=O)C=C4CCC3C1CCC2(O)CC#N (stereo not given) [Dienogest]
12,4.74,CNc1c(C)n(C)n(-c2ccccc2)c1=O [Methylaminophenazone (4-)]
13,8.54,CC(NCCC(c1ccccc1)c1ccccc1)c1ccccc1 (stereo not given) [Fendiline]
14,3.68,c1ccc(C2CN3CCSC3=N2)cc1 (stereo not given) [Levamisol]
15,3.23,NC(N)=NC(=O)c1nc(Cl)c(N2CCCCCC2)nc1N [HMA]
16,3.19,CCNC1CC(C)S(=O)(=O)c2sc(S(N)(=O)=O)cc21 (stereo not given) [Dorzolamide]
17,3.16,CC(C)Nc1nc(N)[nH]c(=O)n1 [Atrazine-desethyl-2-hydroxy (=Prometon-Hydroxy-Desisopropyl)]
18,9.96,CC(C)c1c(C(=O)Nc2ccccc2)c(-c2ccccc2)c(-c2ccc(F)cc2)n1CCC(O)CC(O)CC(=O)O (stereo not given) [Atorvastatin]
19,9.83,COc1cc(CNC(=O)CCCCC=CC(C)C)ccc1O [Capsaicin]
20,7.87,Fc1ccc(C2CCNCC2COc2ccc3c(c2)OCO3)cc1 (stereo not given) [Paroxetine]
21,7.09,CN(C)CCN(Cc1ccc(Cl)cc1)c1ccccn1 [Chloropyramine]
22,5.83,CN(C)CCCC1(c2ccc(F)cc2)OCc2cc(C(=O)O)ccc21 (stereo not given) [Citalopram carboxylic acid]

row,LC retention time [min],SMILES
1,5.49,CC(C)NCC(O)COc1cccc2[nH]c3ccccc3c12 (stereo not given) [Carazolol]
2,9.15,C#CC1(O)CCC2C3CCC4=CC(=O)CCC4C3CCC21C (stereo not given) [Norethisterone]
3,6.7,Nc1ncnc2c1ncn2Cc1c(F)cccc1Cl [Arprinocid]
4,5.12,CN(C)C(=O)Nc1ccccc1 [Fenuron]
5,3.53,Cn1ncc(N)c(Cl)c1=O [Chloridazone-methyl-desphenyl]
6,3.63,Nc1ccc(S(=O)(=O)Nc2nccs2)cc1 [Sulfathiazole]
7,11.2,CC(C)C(=O)Nc1ccc([N+](=O)[O-])c(C(F)(F)F)c1 [Flutamide]
8,5.14,"O=c1[nH]sc2ccccc12 [1,2-Benzisothiazolinone]"
9,11.3,CCCSc1nc(NC2CC2c2ccc(F)c(F)c2)c2nnn(C3CC(OCCO)C(O)C3O)c2n1 (stereo not given) [Ticagrelor]
10,5.88,Cc1nc2n(c(=O)c1CCN1CCC(c3noc4cc(F)ccc34)CC1)CCCC2 [Risperidone]
11,6.69,CCC1OC(=O)CC(O)C(C)C(OC2OC(C)C(O)C(N(C)C)C2O)C(CCN2CC(C)CC(C)C2)CC(C)C(=O)C=CC(C)=CC1COC1OC(C)C(O)C(OC)C1OC (stereo not given) [Tilmicosin]
12,7.16,CCCc1nc(C)c2c(=O)[nH]c(-c3cc(C(=O)CN4CCN(CC)CC4)ccc3OCC)nn12 [Vardenafil-Acetyl]
13,7.99,CNCCCC1c2ccccc2C=Cc2ccccc21 [Protriptyline]
14,3.43,CC(=O)Nc1nnc(S(N)(=O)=O)s1 [Acetazolamide]
15,3.14,CNC(=C[N+](=O)[O-])NCCSCc1ccc(CN(C)C)o1 [Ranitidine]
16,3.68,NC(N)=NC(=O)c1nc(Cl)c(N)nc1N [Amiloride]
17,7.07,Cc1ccc(Cl)c(OCC(O)CNC(C)(C)C)c1 (stereo not given) [Bupranolol]
18,9.14,CN(c1nccc(=O)[nH]1)C1CCN(c2nc3ccccc3n2Cc2ccc(F)cc2)CC1 [Mizolastine]
19,10.3,CC(C)C(=O)C1(C(=O)Nc2ccccc2)OC1(C(=O)c1ccc(F)cc1)c1ccccc1 (stereo not given) [Atorvastatin IMP D (epoxide)]
20,9.29,CCCCCCOC(=O)NC(=N)c1ccc(NCc2nc3cc(C(=O)N(CCC(=O)OCC)c4ccccn4)ccc3n2C)cc1 [Dabigatran etexilate]
21,11.1,CC(C)c1nc(CN(C)C(=O)NC(C(=O)NC(Cc2ccccc2)CC(O)C(Cc2ccccc2)NC(=O)OCc2cncs2)C(C)C)cs1 (stereo not given) [Ritonavir]
22,7.6,CCCc1nn(C)c2c(=O)[nH]c(-c3cc(S(=O)(=O)N4CC(C)NC(C)C4)ccc3OCC)nc12 (stereo not given) [Sildenafil-Dimethyl]

row,SMILES,LC retention time [min]
1,O=C(O)CCCO [GHB Fragm 87],1.95
2,CN1C(=O)CN=C(c2ccccc2F)c2cc([N+](=O)[O-])ccc21 [Flunitrazepam],7.83
3,COP(=O)(OC)C(O)C(Cl)(Cl)Cl (stereo not given) [Trichlorfon (Dylox)],5.23
4,CCOP(=O)(OCC)Oc1cc(C)nc(C(C)C)n1 [Diazinon-O-analog],8.65
5,CCCCCn1cc(C(=O)Cc2cccc(OC)c2)c2ccccc21 [JWH-302],11.6
6,CCC(NC)C(=O)c1ccccc1 (stereo not given) [Buphedrone],4.26
7,COP(=S)(OC)Oc1cc(Cl)c(Br)cc1Cl [Bromophos (Bromophos-methyl)],12.7
8,CC1C(c2ccccc2)OCCN1C (stereo not given) [Phendimetrazine],4.06
9,Nc1ccc(Cl)cc1C(=O)c1ccccc1 [Benzophenone- 2-Amino-5-chloro],10.5
10,CN1C(=O)CN=C(C2=CCCCC2)c2cc(Cl)ccc21 [Tetrazepam],10.5
11,CSc1nc(N=[N+]=[N-])nc(NC(C)C)n1 [Aziprotryne],9.71
12,CNC1=C(c2cccc(C(F)(F)F)c2)C(=O)C(c2ccccc2)O1 (stereo not given) [Flurtamone],9.14
13,Cc1cc(C2CC2)nc(Nc2ccccc2)n1 [Cyprodinil],11
14,CSc1nc(NC(C)C)nc(NC(C)C)n1 [Prometryn],10.1
15,CCc1ccc(C(=O)NN(C(=O)c2cc(C)cc(C)c2)C(C)(C)C)cc1 [Tebufenozide],10.4
16,CNC(=N[N+](=O)[O-])NCc1cnc(Cl)s1 [Clothiandin],4.9
17,COP(=S)(OC)Oc1ccc([N+](=O)[O-])cc1Cl [Dicapthon],10.5
18,Cc1ccccc1C(=O)Nc1cccc(OC(C)C)c1 [Mepronil],9.62
19,CC(C)(C)NCC(O)c1cc(Cl)c(N)c(Cl)c1 (stereo not given) [Clenbuterol],4.76
20,CCCCn1cc(C(=O)c2cccc3ccccc23)c2ccccc21 [JWH-073],11.9
21,COC(=O)c1cc(Oc2ccc(Cl)cc2Cl)ccc1[N+](=O)[O-] [Bifenox],11.5

row,SMILES,LC retention time [min]
1,COCCN(C(=O)CCl)c1c(C)cccc1C [Dimethachlor],8.58
2,c1ccc(C(c2ccccc2)C2CCCCN2)cc1 (stereo not given) [Desoxypipradol],6.3
3,COc1ccc(C(=O)c2cn(CCCCC(=O)O)c3ccccc23)cc1 [RCS-4-M-5-COOH-Pentyl],8.81
4,CCCCC(CC)COC(=O)c1ccccc1C(=O)OCC(CC)CCCC (stereo not given) [Phthalate-bis-(2-ethylhexyl). DEHP],15
5,O=c1[nH]c2c(c(=O)n1C1CCCCC1)CCC2 [Lenacil],8.27
6,O=C(Nc1cccc2cccnc12)c1nn(CCCCCF)c2ccccc12 [THJ-5F],12.5
7,CNC(C)Cc1cccs1 (stereo not given) [Methiopropamine],3.69
8,COc1ccc(CC(C)N)cc1OC (stereo not given) [DMA (3-4-)],3.94
9,CCCC(C(=O)c1ccc2c(c1)OCO2)N1CCCC1 (stereo not given) [MDPV],5.18
10,Cc1occc1C(=O)Nc1ccccc1 [Fenfuram],7.59
11,CCCCCn1nc(C(=O)NC(C(N)=O)C(C)(C)C)c2ccccc21 (stereo not given) [ADB-PINACA],11.2
12,CCCCN(CC)C(=O)SCCC [Pebulate],11.5
13,CCS(=O)Cc1ccccc1OC(=O)NC (stereo not given) [Ethiofencarb-sulfoxide],4.7
14,Cc1ccc(-c2nc3ccc(C)cn3c2CC(=O)N(C)C)cc1 [Zolpidem],5.8
15,CCCCCCC(C)(C)c1ccc(C2CC(O)CCC2CCCO)c(O)c1 (stereo not given) [CP 55-940],12
16,COc1cc(CC(C)N)c(OC)cc1Cl (stereo not given) [DOC],5.67
17,CCC(C)Nc1c([N+](=O)[O-])cc(C(C)(C)C)cc1[N+](=O)[O-] (stereo not given) [Butralin],13
18,CC(Oc1ccc(Oc2nc3ccc(Cl)cc3o2)cc1)C(=O)O (stereo not given) [Fenoxaprop-P],9.83
19,COc1ccc(CCN2CCC(Nc3nc4ccccc4n3Cc3ccc(F)cc3)CC2)cc1 [Astemizole],8.03
20,CCN(CC)C(=O)NC1C=C2c3cccc4[nH]cc(c34)CC2N(C)C1 (stereo not given) [Lisuride],5.92
